Assay results published in US8143212B2 (Vicuron Pharmaceuticals Inc., priority 2002, dated 2012).
pKd: −log10 of the molar value. Converted amounts (≈) assume the structure as drawn. “And” between values parts separate entries of the source, which are not always exact repeats. Equal values may be shown once. Read-outs that look alike come from different tables or passages of the source.

Columns and labels:
S aureus = experiment: MIC, microbiological activity (Tables 2, 3); type: cell-based; conditions: Staphylococcus aureus, read-out: MIC
[1] = tested on: N,N′-diacetyl-Lys-D-Ala-D-Ala; experiment: Isothermal titration calorimetry of tri-peptide binding, with and without HSA (Table 39); conditions: for pKd: read-out: Kdiss
Protocol: Antibiotics and peptides were dissolved in aqueous buffer (20 mM Na phosphate, 150 mM NaCl, pH 7.4) containing HSA, with gentle stirring immediately before each experiment. Peptide concentrations were determined by weight. […] HSA concentrations were determined by UV absorbance (HSA, ε280=37,700; A280^1%=5.44). Spectra were recorded at room temperature in 1 cm pathlength quartz cuvettes using Shimadzu UV-160A or UV-1601 spectrophotometers, with samples diluted quantitatively with buffer if necessary to give absorbance in the 0.1-1 A range.
Isothermal titration calorimetry was performed using a Microcal VP-ITC instrument at 25° C. and 37° C. using standard operating procedures. […] Samples were degassed gently prior to loading to prevent bubble formation in the calorimeter cell. […] Control experiments involved injection of ligand into buffer under identical conditions to determine heats of peptide dilution, and these values were used for correction of raw binding data prior to analysis.

[2] = tested on: Escherichia coli, Proteus vulgaris, Pseudomonas aeruginosas; experiment: MIC by broth microdilution (NCCLS) of IsoB0 and reference compounds (Table 44), non-gram-positive bacterial strains; type: cell-based
Protocol: (§1) MICs were determined by the broth microdilution methodology following the standard NCCLS procedure, with or without 30% bovine serum, using bacterial inocula of approximately 5×10^5 CFU/mL. Tests were read after 20-24 h incubation at 35° C.

[3] = tested on: Candida albicans SKF 2270; experiment: MIC by broth microdilution (NCCLS) (Tables 42, 44); type: cell-based
Staph. aureus = experiment: ED50 against Staph. aureus murine septicaemias (Table 2); type: in vivo; conditions: Staphylococcus aureus, sc, 10 min
gram positive bacteria [4] = conditions: NCCLS M100 S-12, cited from earlier work
CR-BSI trial: safety = conditions: in vivo
Protocol: Safety was evaluated by the collection and analysis of data on adverse events (AEs), clinical laboratory tests, physical examinations, vital signs, and ECGs.

gram-negative bacteria = experiment: MIC by broth microdilution (NCCLS) (Table 42); type: cell-based
Protocol: (§2) Before dissolution, each sample was analyzed by HPLC and quantified.
(§3) The microorganisms used were reference strains obtained from the American Type Culture Collection (ATCC) (Rockville, Md.), SmithKline and French Laboratories (SKF), and the Upjohn Company (UC) (Kalamazoo, Mich.).
(§4) MICs were determined by the broth microdilution methodology following the standard NCCLS procedure (NCCLS Document M7-A6, Vol. 23, No. 2, “Methods for dilution antimicrobial susceptibility tests for bacteria that grow aerobically.” Approved Guideline. January 2003, which can be herein incorporated by reference in its entirety), with or without 30% adult bovine serum (BS) (PAA Laboratories GMBH, Haidmannweg Pasching Austria), using bacterial innocula at approximately 5×10^5 CFU/ml. The media employed included cation-adjusted Müller Hinton broth (Difco Laboratories, Detroit, Mich.) that was used that was adjusted with CaCl2 and MgCl2 to a final concentration of 20 mg/L and 10 mg/L, respectively. Tests were read following 20-24 hours of incubation at 35° C.

[5] = tested on: panel of gram-positive bacteria; experiment: MIC by broth microdilution (NCCLS) of IsoB0 and reference compounds (Table 44); type: cell-based
Protocol: Müller Hinton broth (Difco Laboratories, Detroit, Mich., USA) adjusted with CaCl2 and MgCl2 to a final concentrations of 20 mg/L and 10 mg/L respectively.
The microorganisms used are reference standard strains from the American Type Culture Collection (ATCC, Rockville, USA), Smith Kline and French Laboratories (SKF) and the Upjohn Company (UC, Kalamazoo, Mich., USA).
as §1

[6] = tested on: catheter-related blood stream infection (CR-BSI) due to gram-positive bacterial pathogens; experiment: CR-BSI trial: efficacy (overall, clinical, microbiological response); type: in vivo, human; conditions: microbiological ITT population at TOC; dalbavancin 1000 mg Day 1 + 500 mg Day 8 IV; vancomycin 1000 mg IV every 12 hours
Protocol: Patients with CR-BSI due to suspected or known Gram-positive pathogen(s) who met the inclusion/exclusion criteria were randomized to one of two treatment arms in this open-label, comparative, multi-center study. Dalbavancin was administered once weekly in weekly dalbavancin and comparator (vancomycin) was administered daily in vancomycin. Catheter removal was required for patients with Staphylococcus aureus infection; catheter management was left to the Investigator's discretion for patients with coagulase-negative staphylococci (CoNS) infection. Efficacy was clinically based on the improvement or resolution of clinical signs and symptoms of CR-BSI such that no additional antibacterials were warranted, and microbiologically on the eradication or presence of the baseline or other pathogens.
The treatment lasted for 14 days for patients with S. aureus infection, and 7 to 14 days for all other pathogens. […] Vancomycin was administered intravenously with a 1000 mg dose every 12 hours (or dose-adjusted based on drug levels).
Efficacy was evaluated based on clinical and microbiological responses.

gram positive bacteria [7] = experiment: MIC by broth microdilution (NCCLS), with or without 30% bovine serum (Table 42); type: cell-based
Protocol: as §2, §3, §4

human α-glycoprotein = experiment: Protein binding by isothermal titration microcalorimetry (Tables 27, 28); conditions: for Calculated percent Binding: Human α-glycoprotein ([…]10^−5 M)
Protocol: (§5) Integrated heat effects, after correction for heats of dilution, were analyzed by non-linear regression using a simple single-site binding model with the standard Microcal ORIGIN software package. Raw data (μcal/sec) for each injection were integrated to give the total heat effect per addition, then divided by amount of injectant to give kcal/mole of injectant. The same integration was applied for control dilution effects, and this was subtracted from the actual titration data. This provided a differential of the binding curve in which the extent of binding is proportional to the total heat liberated (or absorbed). This was then analyzed by non-linear regression methods in terms of various standard binding models. The simplest model assumes simple non-competitive binding equilibrium, and gives three parameters:

human albumin = human albumin (Homo sapiens, UniProt P02768); experiment: as above; conditions: for Calculated percent Binding: Human albumin (6×10^−4 M)
Protocol: as §5

[8] = ESI-MS of multimers in solution (concentration, pH, ionic strength); type: physicochemical
Protocol: Experiments were performed using an Applied Biosystem API III+ mass spectrometer equipped with a TurboIonSpray source, a Triple Quadrupole analyzer, operating in positive ion mode.
The mass spectra were obtained in electrospray positive mode on a Finnigan LCQ^Deca ion trap instrument previously tuned and calibrated in electrospray mode using Ultramark 1621, caffeine and MRFA (L-metionyl-arginyl-phenilalanyl-arginine).
The mass spectra were obtained in electrospray positive mode on a Finnigan LCQ^Deca ion trap instrument previous tuned and calibrated in electrospray mode using Ultramark 1621, caffeine and MRFA (L-metionyl-arginyl-phenilalanyl-arginine).

[9] = Enterococcus faecalis ATCC 7080
[10] = Enterococcus faecalis, ATCC29212
[11] = Staphylococcus aureus, ATCC19636
[12] = Staphylococcus aureus, ATCC29213
[13] = Staphylococcus epidermidis, ATCC12228

Sequence of human albumin (P02768 25-609): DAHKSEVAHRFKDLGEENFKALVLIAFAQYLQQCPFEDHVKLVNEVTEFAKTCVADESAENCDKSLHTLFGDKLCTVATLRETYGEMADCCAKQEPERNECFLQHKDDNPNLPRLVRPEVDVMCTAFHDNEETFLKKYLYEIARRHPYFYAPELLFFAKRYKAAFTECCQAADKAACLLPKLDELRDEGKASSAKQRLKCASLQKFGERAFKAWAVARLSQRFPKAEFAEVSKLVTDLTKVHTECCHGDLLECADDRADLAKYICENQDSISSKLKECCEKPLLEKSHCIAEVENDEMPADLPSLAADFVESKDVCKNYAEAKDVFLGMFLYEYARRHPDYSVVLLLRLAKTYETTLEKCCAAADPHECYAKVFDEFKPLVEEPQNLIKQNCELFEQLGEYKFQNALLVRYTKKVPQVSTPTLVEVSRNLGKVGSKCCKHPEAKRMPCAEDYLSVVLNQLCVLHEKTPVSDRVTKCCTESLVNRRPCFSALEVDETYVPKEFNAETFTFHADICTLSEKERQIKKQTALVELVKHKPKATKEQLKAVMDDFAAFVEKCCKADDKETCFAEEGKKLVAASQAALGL

Question: With `CN[C@H](CC(C)C)C(=O)N[C@H]1C(=O)N[C@@H](CC(N)=O)C(=O)N[C@H]2C(=O)N[C@H]3C(=O)N[C@H](C(=O)N[C@H](C(=O)O)c4cc(O)cc(O)c4-c4cc3ccc4O)[C@H](O)c3ccc(c(Cl)c3)Oc3cc2cc(c3O[C@@H]2O[C@H](CO)[C@@H](O)[C@H](O)[C@H]2O[C@H]2C[C@](C)(N)[C@H](O)[C@H](C)O2)Oc2ccc(cc2Cl)[C@H]1O` [Vancomycin] as the compound, how does the MIC (S aureus; MRSA Staph. aureus 3817) read?
Answer: 0.5 µg/mL (≈ 0.345 µM)

Question: What about the MIC (S aureus; MSSA Staph. aureus Smith 819) of the same compound?
Answer: 0.5 µg/mL (≈ 0.345 µM)

Question: What about the Kass ([1]; T 10 ° C., [HSA] 0 μM) of the same compound?
Answer: 690000 M⁻¹

Question: And the Kass ([1]; T 25 ° C., [HSA] 0 μM)?
Answer: 340000 M⁻¹ and 360000 M⁻¹

Question: And the Kass ([1]; T 25 ° C., with HSA 513 μM)?
Answer: 290000 M⁻¹

Question: What about the “binding to dipeptide (D-Ala-D-Ala) or to Lys-D-Ala-D-Lactate” value ([1]; absence of serum proteins) of the same compound?
Answer: no evidence of binding

Question: What about the pKd ([1]; T 10 ° C., [HSA] 0 μM) of the same compound?
Answer: 5.84

Question: What about the pKd ([1]; T 25 ° C., [HSA] 0 μM) of the same compound?
Answer: 5.53 and 5.56

Question: And the pKd ([1]; T 25 ° C., with HSA 513 μM)?
Answer: 5.46

Question: What about the MIC [2] of the same compound?
Answer: > 128 µg/mL

Question: What about the MIC ([2]; Escherichia coli) of the same compound?
Answer: > 128 µg/mL

Question: What about the MIC ([2]; Escherichia coli, ATCC25922) of the same compound?
Answer: > 128 µg/mL

Question: What about the MIC ([2]; Proteus vulgaris ATCC 881) of the same compound?
Answer: > 128 µg/mL

Question: And the MIC ([3]; Candida albicans SKF2270 (Table 44))?
Answer: >128 µg/mL

Question: What about the MIC ([3]; Candida albicans, SKF2270) of the same compound?
Answer: > 128 µg/mL

Question: And the ED50 (Staph. aureus; MRSA)?
Answer: 1 mg/kg

Question: And the ED50 (Staph. aureus; MSSA)?
Answer: 1.7 mg/kg

Question: And the “Quality control range of MICs for reference strains” value (gram positive bacteria [4]; E. faecalis ATCC29212 ref. strain)?
Answer: ^2VA 1-4 mg/L

Question: What about the “Quality control range of MICs for reference strains” value (gram positive bacteria [4]; S. aureus ATCC 29213 ref. strain) of the same compound?
Answer: ^1VA 0.5-2 mg/L

Question: What about the “patients with AEs that led to discontinuation of study drug” value (CR-BSI trial: safety; human, intravenous) of the same compound?
Answer: 8.8%

Question: And the “SAE considered to be related to study drug” value (CR-BSI trial: safety)?
Answer: one SAE

Question: What about the MIC (gram-negative bacteria) of the same compound?
Answer: > 128 µg/mL

Question: What about the MIC (gram-negative bacteria; Escherichia coli) of the same compound?
Answer: > 128 µg/mL

Question: And the MIC (gram-negative bacteria; Escherichia coli, ATCC25922)?
Answer: > 128 µg/mL

Question: What about the MIC (gram-negative bacteria; Proteus vulgaris ATCC 881) of the same compound?
Answer: > 128 µg/mL

Question: And the MIC ([5]; Bacillus subtilis ATCC 6633)?
Answer: ≤ 0.125 µg/mL

Question: And the MIC [5, 9]?
Answer: 1 µg/mL (≈ 0.69 µM)

Question: What about the MIC [5, 10] of the same compound?
Answer: 2 µg/mL (≈ 1.38 µM)

Question: What about the MIC [5, 11] of the same compound?
Answer: 1 µg/mL (≈ 0.69 µM)

Question: And the MIC [5, 12]?
Answer: 2 µg/mL (≈ 1.38 µM)

Question: What about the MIC [5, 13] of the same compound?
Answer: 2 µg/mL (≈ 1.38 µM)

Question: And the MIC ([5]; Streptococcus pneumoniae, UC41)?
Answer: 0.5 µg/mL (≈ 0.345 µM)

Question: What about the MIC ([5]; Streptococcus pyogenes) of the same compound?
Answer: 1 µg/mL (≈ 0.69 µM)

Question: What about the “overall response success rate” value [6] of the same compound?
Answer: 50.0%

Question: What about the MIC (gram positive bacteria [7]) of the same compound?
Answer: 1 µg/mL (≈ 0.69 µM)

Question: What about the MIC (gram positive bacteria [7]; Bacillus subtilis ATCC 6633) of the same compound?
Answer: ≤ 0.125 µg/mL

Question: And the MIC (gram positive bacteria [7]; [9])?
Answer: 1 µg/mL (≈ 0.69 µM)

Question: What about the MIC (gram positive bacteria [7]; [10]) of the same compound?
Answer: 2 µg/mL (≈ 1.38 µM)

Question: What about the MIC (gram positive bacteria [7]; [11]) of the same compound?
Answer: 1 µg/mL (≈ 0.69 µM)

Question: What about the MIC (gram positive bacteria [7]; [12]) of the same compound?
Answer: 2 µg/mL (≈ 1.38 µM)

Question: What about the MIC (gram positive bacteria [7]; [13]) of the same compound?
Answer: 2 µg/mL (≈ 1.38 µM)

Question: What about the MIC (gram positive bacteria [7]; Streptococcus pneumoniae, UC41) of the same compound?
Answer: 0.5 µg/mL (≈ 0.345 µM)

Question: Which “Calculated percent Binding” value (human α-glycoprotein; antibiotic 1 μM) does the source give for Teicoplanin here?
Answer: 9.6%

Question: And the “Calculated percent Binding” value (human α-glycoprotein; antibiotic 10 μM)?
Answer: 9.1%

Question: And the “Calculated percent Binding” value (human α-glycoprotein; antibiotic 100 μM)?
Answer: 6.0%

Question: What about the “apparent binding affinity (Ka)” value (human α-glycoprotein; α-glycoprotein, 25° C.) of the same compound?
Answer: 0.07 (±0.01) ×10^5 M^−1

Question: And the “Calculated percent Binding” value (human albumin; antibiotic 1 μM)?
Answer: 98.3%

Question: What about the “Calculated percent Binding” value (human albumin; antibiotic 10 μM) of the same compound?
Answer: 98.3%

Question: What about the “Calculated percent Binding” value (human albumin; antibiotic 100 μM) of the same compound?
Answer: 98.0%

Question: And the “apparent binding affinity (Ka)” value (human albumin; Human albumin, 25° C., pH 7.4)?
Answer: 0.96 (±0.08) ×10^5 M^−1

Question: What about the “multimers in solution (ESI-MS)” value [8] of the same compound?
Answer: does not show multimeric complexes
